# Data taken from PubChem BioAssay (NCI).
#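 GI50 is the concentration that inhibits growth by half. TGI: concentration producing complete growth inhibition.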
# Assays:
# Experiment in all cases: DTP human tumour cell line panel, 384-well format
# HOP-62 NSCLC = system: HOP-62 NSCLC
# HS 578T breast = system: HS 578T breast
# MCF7 breast = system: MCF7 breast
# A549 NSCLC = system: A549 NSCLC
# MOLT-4 leukemia = system: MOLT-4 leukemia
# NCI-H23 lung = system: NCI-H23 lung
# CCRF-CEM leukemia = system: CCRF-CEM leukemia
# SN12C renal = system: SN12C renal
# CAKI-1 renal = system: CAKI-1 renal
# HCC-2998 colon = system: HCC-2998 colon
# U251 glioblastoma = system: U251 glioblastoma
# SK-MEL-28 melanoma = system: SK-MEL-28 melanoma
# OVCAR-8 ovarian = system: OVCAR-8 ovarian
# SW-620 colon = system: SW-620 colon
# MDA-MB-468 breast = system: MDA-MB-468 breast
# HCT-15 colon = system: HCT-15 colon
# NCI-H322M lung = system: NCI-H322M lung
# ACHN renal = system: ACHN renal
# PC-3 prostate = system: PC-3 prostate
# COLO 205 colon = system: COLO 205 colon
# MDA-MB-435 melanoma = system: MDA-MB-435 melanoma
# BT-549 breast = system: BT-549 breast
# SK-OV-3 ovarian = system: SK-OV-3 ovarian
# A498 renal = system: A498 renal
# SK-MEL-5 melanoma = system: SK-MEL-5 melanoma
# T-47D breast = system: T-47D breast
# TK-10 renal = system: TK-10 renal
# DU-145 prostate = system: DU-145 prostate
# MDA-MB-231 breast = system: MDA-MB-231 breast
# NCI-H226 lung = system: NCI-H226 lung
# RPMI-8226 leukemia = system: RPMI-8226 leukemia
# SNB-75 CNS = system: SNB-75 CNS
# OVCAR-3 ovarian = system: OVCAR-3 ovarian
# SF-539 CNS = system: SF-539 CNS
# OVCAR-4 ovarian = system: OVCAR-4 ovarian
# KM12 colon = system: KM12 colon
# UACC-257 melanoma = system: UACC-257 melanoma
# OVCAR-5 ovarian = system: OVCAR-5 ovarian
# EKVX NSCLC = system: EKVX NSCLC
# HL-60(TB) leukemia = system: HL-60(TB) leukemia
# 786-0 renal = system: 786-0 renal
# RXF 393 renal = system: RXF 393 renal
# SF-268 CNS = system: SF-268 CNS
# MALME-3M melanoma = system: MALME-3M melanoma
# NCI-H460 NSCLC = system: NCI-H460 NSCLC
# UACC-62 melanoma = system: UACC-62 melanoma
# NCI/ADR-RES ovarian = system: NCI/ADR-RES ovarian
# SK-MEL-2 melanoma = system: SK-MEL-2 melanoma
# HT29 colon = system: HT29 colon
# SR leukemia = system: SR leukemia
# M14 melanoma = system: M14 melanoma
# SNB-19 CNS = system: SNB-19 CNS
# SF-295 CNS = system: SF-295 CNS
# HOP-92 NSCLC = system: HOP-92 NSCLC
# NCI-H522 lung = system: NCI-H522 lung
# IGROV1 ovarian = system: IGROV1 ovarian
structure (smiles),measurement,setting,value
CC(C)n1nc(-c2ccc3oc(N)nc3c2)c2c(N)ncnc21,GI50,HOP-62 NSCLC,0.0124 µM
same,TGI,HOP-62 NSCLC,0.119 µM
same,GI50,HS 578T breast,< 0.01 µM
same,TGI,HS 578T breast,0.0264 µM
same,GI50,MCF7 breast,< 0.01 µM
same,TGI,MCF7 breast,7.12 µM
same,GI50,A549 NSCLC,0.0179 µM
same,TGI,A549 NSCLC,0.259 µM
same,GI50,MOLT-4 leukemia,0.0177 µM
same,TGI,MOLT-4 leukemia,0.726 µM
same,GI50,NCI-H23 lung,0.0743 µM
same,TGI,NCI-H23 lung,1.63 µM
same,GI50,CCRF-CEM leukemia,0.0161 µM
same,TGI,CCRF-CEM leukemia,0.258 µM
same,GI50,SN12C renal,0.0105 µM
same,TGI,SN12C renal,1.45 µM
same,GI50,CAKI-1 renal,0.0147 µM
same,TGI,CAKI-1 renal,0.0828 µM
same,GI50,HCC-2998 colon,0.0153 µM
same,TGI,HCC-2998 colon,5.31 µM
same,GI50,U251 glioblastoma,0.0662 µM
same,TGI,U251 glioblastoma,7.22 µM
same,GI50,SK-MEL-28 melanoma,0.0187 µM
same,TGI,SK-MEL-28 melanoma,0.0839 µM
same,GI50,OVCAR-8 ovarian,0.0401 µM
same,TGI,OVCAR-8 ovarian,0.858 µM
same,GI50,SW-620 colon,0.113 µM
same,TGI,SW-620 colon,3.14 µM
same,GI50,MDA-MB-468 breast,< 0.01 µM
same,TGI,MDA-MB-468 breast,0.0152 µM
same,GI50,HCT-15 colon,< 0.01 µM
same,TGI,HCT-15 colon,11.6 µM
same,GI50,NCI-H322M lung,0.0142 µM
same,TGI,NCI-H322M lung,2.27 µM
same,GI50,ACHN renal,0.0362 µM
same,TGI,ACHN renal,0.347 µM
same,GI50,PC-3 prostate,< 0.01 µM
same,TGI,PC-3 prostate,0.0853 µM
same,GI50,COLO 205 colon,0.0126 µM
same,TGI,COLO 205 colon,0.064 µM
same,GI50,MDA-MB-435 melanoma,0.0264 µM
same,TGI,MDA-MB-435 melanoma,0.152 µM
same,GI50,BT-549 breast,0.0121 µM
same,TGI,BT-549 breast,0.0569 µM
same,GI50,SK-OV-3 ovarian,< 0.01 µM
same,TGI,SK-OV-3 ovarian,0.042 µM
same,GI50,A498 renal,< 0.01 µM
same,TGI,A498 renal,0.022 µM
same,GI50,SK-MEL-5 melanoma,0.0138 µM
same,TGI,SK-MEL-5 melanoma,0.0458 µM
same,GI50,T-47D breast,< 0.01 µM
same,TGI,T-47D breast,< 0.01 µM
same,GI50,TK-10 renal,0.0116 µM
same,TGI,TK-10 renal,0.109 µM
same,GI50,DU-145 prostate,0.0354 µM
same,TGI,DU-145 prostate,2.68 µM
same,GI50,MDA-MB-231 breast,0.0187 µM
same,TGI,MDA-MB-231 breast,0.681 µM
same,GI50,NCI-H226 lung,0.0102 µM
same,TGI,NCI-H226 lung,0.0627 µM
same,GI50,RPMI-8226 leukemia,< 0.01 µM
same,TGI,RPMI-8226 leukemia,< 0.01 µM
same,GI50,SNB-75 CNS,< 0.01 µM
same,TGI,SNB-75 CNS,0.042 µM
same,GI50,OVCAR-3 ovarian,0.0222 µM
same,TGI,OVCAR-3 ovarian,1.16 µM
same,GI50,SF-539 CNS,0.0328 µM
same,TGI,SF-539 CNS,0.626 µM
same,GI50,OVCAR-4 ovarian,0.0185 µM
same,TGI,OVCAR-4 ovarian,0.0567 µM
same,GI50,KM12 colon,0.0217 µM
same,TGI,KM12 colon,1.84 µM
same,GI50,UACC-257 melanoma,0.0514 µM
same,TGI,UACC-257 melanoma,0.523 µM
same,GI50,OVCAR-5 ovarian,0.0245 µM
same,TGI,OVCAR-5 ovarian,0.603 µM
same,GI50,EKVX NSCLC,0.0182 µM
same,TGI,EKVX NSCLC,0.122 µM
same,GI50,HL-60(TB) leukemia,0.326 µM
same,TGI,HL-60(TB) leukemia,3 µM
same,GI50,786-0 renal,0.0448 µM
same,TGI,786-0 renal,1.51 µM
same,GI50,RXF 393 renal,0.0125 µM
same,TGI,RXF 393 renal,0.0503 µM
same,GI50,SF-268 CNS,0.0408 µM
same,TGI,SF-268 CNS,0.579 µM
same,GI50,MALME-3M melanoma,< 0.01 µM
same,TGI,MALME-3M melanoma,< 0.01 µM
same,GI50,NCI-H460 NSCLC,< 0.01 µM
same,TGI,NCI-H460 NSCLC,1.87 µM
same,GI50,UACC-62 melanoma,0.0184 µM
same,TGI,UACC-62 melanoma,0.078 µM
same,GI50,NCI/ADR-RES ovarian,0.0359 µM
same,TGI,NCI/ADR-RES ovarian,0.402 µM
same,GI50,SK-MEL-2 melanoma,0.0537 µM
same,TGI,SK-MEL-2 melanoma,0.0921 µM
same,GI50,HT29 colon,0.0445 µM
same,TGI,HT29 colon,10.4 µM
same,GI50,SR leukemia,0.0173 µM
same,TGI,SR leukemia,0.0635 µM
same,GI50,M14 melanoma,0.0147 µM
same,TGI,M14 melanoma,0.165 µM
same,GI50,SNB-19 CNS,0.0696 µM
same,TGI,SNB-19 CNS,10.6 µM
same,GI50,SF-295 CNS,0.0278 µM
same,TGI,SF-295 CNS,0.38 µM
same,GI50,HOP-92 NSCLC,0.0202 µM
same,TGI,HOP-92 NSCLC,0.19 µM
same,GI50,NCI-H522 lung,< 0.01 µM
same,TGI,NCI-H522 lung,0.0326 µM
same,GI50,IGROV1 ovarian,< 0.01 µM
same,TGI,IGROV1 ovarian,0.0266 µM
